Experimental data from patent publication US11629144B2, “Crystal form of monomethanesulfonate of deuterated 3-(4,5-substituted aminopyrimidine)phenyl compound and preparation method therefor” (NANJING CHUANGTE PHARMACEUTICAL TECHNOLOGY CO., LTD., priority 2018, dated 2023).
“Also recorded” adds a separate entry of the source. Each block holds one compound with its values, some of them ahead of it.

Legend:
Assay type in all cases: physicochemical
[1] = Stability differential scanning calorimetry (DSC) test; settings: rate of temperature rise 10.00° C./min
Experimental: 1. Stability Differential Scanning Calorimetry (DSC) Test
Instrument: NETZSCH DSC 204 type differential thermal analyzer
Rate of temperature rise: 10.00° C./min

[2] = Crystal influence factor test (high temperature, high humidity, illumination, 15 days); settings: high-humidity and illumination conditions for 15 days
Excerpt: 2. Crystal Influence Factor Test

Accelerated lofting test = test: Accelerated lofting test; set-up: Maximum individual impurity / Loss on drying: unit not given here; settings: 40±2° C., RH 75%±5%; for Loss on drying: limit ≤1.0; for Maximum individual impurity: limit ≤2.50; for Total impurity: limit ≤4.0%; for Methanesulfonic acid (%): limit ≤15.0-15.8%; for Content (%): should not be less than 78.0%
Experimental: 3. Accelerated Lofting Test
A sample of the crystal form B of the monomethanesulfonate of the compound shown in formula I was placed in a petri dish and was sampled and tested at 0 hour, 1 month, 2 months, 3 months, and 6 months respectively at a temperature of 40±2° C. and a relative humidity of 75%±5%, with the results shown in Table 1: […]

[3] = Long-term lofting experiments; settings: 25±5° C., RH 60%±10%; for Loss on diying: limit ≤1.0; for Maximum individual impurity: limit ≤2.50; for Total impurity: limit ≤4.0%; for Methanesulfonic acid (%): limit ≤15.0-15.8%; for Content (%): should not be less than 78.0%
Experimental: 4. Long-Term Lofting Experiments
A sample of the crystal form B of the monomethanesulfonate of the compound shown in formula I was placed in a petri dish under the conditions of the temperature being 25±5° C. and the relative humidity being 60%±10% and was sampled and tested at 0 hour, 3 months, and 6 months respectively, with the results shown in Table 2: […]

DSC peak (stability of heat exchange range) [1]: a single peak value is observed
SMILES: [2H]C([2H])([2H])N(C)CCN(C)c1cc(OC)c(Nc2nccc(-c3cn4c5c(cccc35)CCC4)n2)cc1NC(=O)C=C [crystal form A]
Crystal transformation (X-ray diffraction pattern) [2]: can be converted into the crystal form B of the monomethanesulfonate under the high-temperature or high-humidity condition; also recorded: converted to the crystal form B of the monomethanesulfonate at high temperature and high humidity

Loss on drying (Accelerated lofting test; 0 month): 0.08 | Maximum individual impurity (Accelerated lofting test; 0 month): 1.62 | Total impurity (Accelerated lofting test; 0 month): 2.55% | Methanesulfonic acid (%) (Accelerated lofting test; 0 month): 15.5% | Content (%) (Accelerated lofting test; 0 month): 80.5% | Loss on drying (Accelerated lofting test; 1 month): 0.03 | Maximum individual impurity (Accelerated lofting test; 1 month): 1.87 | Total impurity (Accelerated lofting test; 1 month): 3.12% | Methanesulfonic acid (%) (Accelerated lofting test; 1 month): 15.2% | Content (%) (Accelerated lofting test; 1 month): 82.2% | Loss on drying (Accelerated lofting test; 2 months): 0.03 | Maximum individual impurity (Accelerated lofting test; 2 months): 1.42 | Total impurity (Accelerated lofting test; 2 months): 2.72% | Methanesulfonic acid (%) (Accelerated lofting test; 2 months): 15.4% | Content (%) (Accelerated lofting test; 2 months): 82.3% | Loss on drying (Accelerated lofting test; 3 months): 0.03 | Maximum individual impurity (Accelerated lofting test; 3 months): 1.62 | Total impurity (Accelerated lofting test; 3 months): 2.72% | Methanesulfonic acid (%) (Accelerated lofting test; 3 months): 15.4% | Content (%) (Accelerated lofting test; 3 months): 79.5% | Crystal form by X-ray powder diffraction pattern compared with before the experiments (Accelerated lofting test; 6 months): the crystal form was not changed | Loss on drying (Accelerated lofting test; 6 months): 0.14 | Maximum individual impurity (Accelerated lofting test; 6 months): 1.61 | Total impurity (Accelerated lofting test; 6 months): 2.74% | Methanesulfonic acid (%) (Accelerated lofting test; 6 months): 15.4% | Content (%) (Accelerated lofting test; 6 months): 80.8% | Loss on diying ([3]; 0 month): 0.08 | Maximum individual impurity ([3]; 0 month): 1.62 | Total impurity ([3]; 0 month): 2.55% | Methanesulfonic acid (%) ([3]; 0 month): 15.5% | Content (%) ([3]; 0 month): 80.5% | Loss on diying ([3]; 3 months): 0.08 | Maximum individual impurity ([3]; 3 months): 1.65 | Total impurity ([3]; 3 months): 2.78% | Methanesulfonic acid (%) ([3]; 3 months): 15.4% | Content (%) ([3]; 3 months): 80.0% | Crystal form by X-ray powder diffraction pattern compared with before the experiments ([3]; 6 months): the crystal form was not changed | Loss on diying ([3]; 6 months): 0.6 | Maximum individual impurity ([3]; 6 months): 1.48 | Total impurity ([3]; 6 months): 2.50% | Methanesulfonic acid (%) ([3]; 6 months): 15.4% | Content (%) ([3]; 6 months): 82.3%
SMILES: [2H]C([2H])([2H])N(C)CCN(C)c1cc(OC)c(Nc2nccc(-c3cn4c5c(cccc35)CCC4)n2)cc1NC(=O)C=C [crystal form B]
Change of all investigation items (Accelerated lofting test; up to 6 months): all investigation items have no obvious change | Change of all investigation items ([3]; up to 6 months): all investigation items have no obvious change
